Assay results from patent publication US20230240296A1, “SEED TREATMENT FOR SAFENING WHEAT TO CHLOROACETAMIDE HERBICIDES” (THE BOARD OF TRUSTEES OF THE UNIVERSITY OF ARKANSAS, priority 2022, published 2023).

System: wheat cultivar 'Smiths Gold'
Assay: Field trial: fenclorim seed treatment safening wheat against preemergence S-metolachlor (crop injury)
Format: in vivo
Experimental: Thus, in some embodiments, the methods of the present invention reduce herbicide-induced crop injury. The reduction in crop injury, due to a particular herbicide, provided by a particular safener can be determined by visually assessing crop injury in a plot of wheat treated with both the herbicide and the safener and comparing it to the crop injury observed in a control plot that was treated with the herbicide alone. Crop injury may be assessed by assigning the treated plot a rating on a scale of 0 to 100, wherein 0 indicates no crop injury and 100 indicates complete crop destruction. This score may be assigned, for example, by comparing the crop groundcover (i.e., green pixels) in the treated plot to that of the control plot using photographs.
Group 15 herbicides are promising candidates for controlling ryegrass in wheat. However, these herbicides are not currently registered for use in this crop. Thus, a field trial was conducted in Fayetteville, Ark. in fall of 2021 to test the ability of the safener fenclorim to protect wheat against the Group 15 herbicide S-metolachlor.
Seed from the conventional wheat cultivar ‘Smiths Gold’ was treated with various rates of the safener fenclorim (0, 0.5, and 2.0 g/kg seed). […] Crop injury and control of ryegrass were evaluated at two and three weeks after crop emergence. […]

`Clc1cc(Cl)nc(-c2ccccc2)n1` [fenclorim, 4,6-dichloro-2-phenyl-pyrimidine] was tested, and the “safening against S-metolachlor (percentage of injury to wheat)” value (fenclorim seed treatment 0.5 and 2.0 g/kg seed, S-metolachlor 750 and 1120 g ai/ha preemergence, two and three weeks after crop emergence, field, Fayetteville, Ark.) was “significant safening was achieved” and the “safening shown in plot photos of wheat plants” value (fenclorim seed treatment 0.5 or 2.0 g/kg seed, S-metolachlor 750 g ai/ha preemergent, two weeks after crop emergence) was “safening provided”.
